*1 amine or outer side, *2 acyl side, *3 side chain or, on linkers, in order; H or OH if unused. Where a SMILES comes first, the peptide text is derived from it. [ ]: non-standard residue; d: D form. X1 = O=C([C@H]1CCC[C@@H]1N[*:1])[*:2]; X2 = O=C([C@H]1CNC[C@@H]1N[*:1])[*:2]; Aib = CC(C)(N)C(=O)O
How the values were obtained:
GLP-1R [1] = biological target: T1, GLP-1R (Homo sapiens, UniProt P43220); assay: GloSensor cAMP reporter assay; format: cell-based; details: read-out: cAMP Max Response (% GLP-1)
GLP-1R [2] = biological target: T1, GLP-1R; assay: cell-based; details: HEK293FT, read-out: β-Arrestin-2 Max Response (% GLP-1)
GLP-1R [3] = biological target: T1, GLP-1R; assay: β-arrestin-1 recruitment BRET^2 assay; details: for Emax: HEK293FT, read-out: β-Arrestin-1 Max Response (% GLP-1)
GLP-1R [4] = biological target: T1, GLP-1R; details: within the concentration range examined (up to 1 µM)
[5] = previous studies; cited from earlier work
mouse pancreatic islets = details: cited from earlier work
[6] = biological target: Human GLP-1R (glucagon-like peptide-1 receptor) (human) (UniProt P43220)
Human GLP-1R (glucagon-like peptide-1 receptor) (human), sequence (P43220 24-463): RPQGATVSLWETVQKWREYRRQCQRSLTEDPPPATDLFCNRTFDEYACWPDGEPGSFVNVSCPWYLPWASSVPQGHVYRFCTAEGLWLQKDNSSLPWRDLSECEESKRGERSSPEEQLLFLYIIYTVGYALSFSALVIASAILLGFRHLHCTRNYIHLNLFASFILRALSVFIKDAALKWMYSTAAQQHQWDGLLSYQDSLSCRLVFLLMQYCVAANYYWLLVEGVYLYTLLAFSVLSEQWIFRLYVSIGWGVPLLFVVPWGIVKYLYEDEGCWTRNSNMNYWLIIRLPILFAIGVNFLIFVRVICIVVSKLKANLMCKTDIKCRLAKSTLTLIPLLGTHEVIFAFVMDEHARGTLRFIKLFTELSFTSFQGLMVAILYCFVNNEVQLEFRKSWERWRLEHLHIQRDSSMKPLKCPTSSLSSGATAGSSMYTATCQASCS

T1 sequence (P43220 24-463): as above

| Compound | Emax (GLP-1R [1]) [%] | Emax (GLP-1R [2]) [%] | Emax (GLP-1R [3]) [%] | β-arrestin-2 recruitment, result in words (GLP-1R [4]) | β-arrestin-1 recruitment, result in words (GLP-1R [3]; within the concentration range examined (up to 1 µM)) | cAMP production (GloSensor reporter cells), pEC50 [6] | control of blood glucose in vivo [5] | duration of glucose control relative to GLP-1 [5] | insulin secretagogue activity compared with GLP-1 (mouse pancreatic islets) |
| --- | --- | --- | --- | --- | --- | --- | --- | --- | --- |
| CC[C@H](C)[C@H](NC(=O)[C@H](Cc1ccccc1)NC(=O)[C@H](CCC(=O)O)NC(=O)[C@H]1CNC[C@@H]1NC(=O)[C@H](C)NC(=O)[C@H](C)NC(=O)[C@H](CCC(N)=O)NC(=O)[C@H]1CCC[C@@H]1NC(=O)[C@H](CCC(=O)O)NC(=O)[C@H](CC(C)C)NC(=O)[C@H](Cc1ccc(O)cc1)NC(=O)[C@H]1CCC[C@@H]1NC(=O)[C@H](CO)NC(=O)C(C)(C)NC(=O)[C@H](CC(=O)O)NC(=O)[C@H](CO)NC(=O)[C@@H](NC(=O)[C@H](Cc1ccccc1)NC(=O)[C@@H](NC(=O)CNC(=O)[C@H](CCC(=O)O)NC(=O)C(C)(C)NC(=O)[C@@H](N)Cc1c[nH]cn1)[C@@H](C)O)[C@@H](C)O)C(=O)N[C@H]1CCC[C@@H]1C(=O)N[C@@H](Cc1c[nH]c2ccccc12)C(=O)N[C@@H](CC(C)C)C(=O)N[C@H](C(=O)N[C@H]1CNC[C@@H]1C(=O)NCC(=O)N[C@@H](CCCNC(=N)N)C(=O)NCC(N)=O)C(C)C [α/β-Peptide 4] (H-H[Aib]EGTFTSD[Aib]S[X1]YLE[X1]QAA[X2]EFI[X1]WLV[X2]GRG-NH2) | 60 ± 5 | 13 ± 4 | 6 ± 8 | no significant recruitment | no significant recruitment |  | can control blood glucose in vivo | prolonged | indistinguishable |
| CC[C@H](C)[C@H](NC(=O)[C@H](Cc1ccccc1)NC(=O)[C@H](CCC(=O)O)NC(=O)[C@H]1CNC[C@@H]1NC(=O)[C@H](C)NC(=O)[C@H](C)NC(=O)[C@H](CCC(N)=O)NC(=O)[C@H]1CCC[C@@H]1NC(=O)[C@H](CCC(=O)O)NC(=O)[C@H](CC(C)C)NC(=O)[C@H](Cc1ccc(O)cc1)NC(=O)[C@H]1CCC[C@@H]1NC(=O)[C@H](CO)NC(=O)[C@@H](NC(=O)[C@H](CC(=O)O)NC(=O)[C@H](CO)NC(=O)[C@@H](NC(=O)[C@H](Cc1ccccc1)NC(=O)[C@@H](NC(=O)CNC(=O)[C@H](CCC(=O)O)NC(=O)[C@H](C)NC(=O)[C@@H](N)Cc1c[nH]cn1)[C@@H](C)O)[C@@H](C)O)C(C)C)C(=O)N[C@@H](C)C(=O)N[C@@H](Cc1c[nH]c2ccccc12)C(=O)N[C@@H](CC(C)C)C(=O)N[C@H](C(=O)N[C@@H](CCCCN)C(=O)NCC(=O)N[C@@H](CCCNC(=N)N)C(=O)NCC(N)=O)C(C)C [α/β-Peptide 8] (H-HAEGTFTSDVS[X1]YLE[X1]QAA[X2]EFIAWLVKGRG-NH2) | 96 ± 1 | 63 ± 5 | 43 ± 3 |  |  |  |  |  |  |
| GLP-1(7–36)NH2 (peptide) |  |  |  |  |  | -10.3 pEC50 (M) |  |  |  |

Further lines, with some results ahead:

| Emax (GLP-1R [1]) [%] | Emax (GLP-1R [2]) [%] | Emax (GLP-1R [3]) [%] | β-arrestin-2 recruitment, result in words (GLP-1R [4]) | β-arrestin-1 recruitment, result in words (GLP-1R [3]; within the concentration range examined (up to 1 µM)) | cAMP production (GloSensor reporter cells), pEC50 [6] | Compound | control of blood glucose in vivo [5] | duration of glucose control relative to GLP-1 [5] | insulin secretagogue activity compared with GLP-1 (mouse pancreatic islets) |
| --- | --- | --- | --- | --- | --- | --- | --- | --- | --- |
| 101 ± 1 | 78 ± 4 | 88 ± 6 |  |  |  | CC[C@H](C)[C@H](NC(=O)[C@H](Cc1ccccc1)NC(=O)[C@H](CCC(=O)O)NC(=O)[C@H]1CNC[C@@H]1NC(=O)[C@H](C)NC(=O)[C@H](C)NC(=O)[C@H](CCC(N)=O)NC(=O)CNC(=O)[C@H](CCC(=O)O)NC(=O)[C@H](CC(C)C)NC(=O)[C@H](Cc1ccc(O)cc1)NC(=O)[C@H](CO)NC(=O)[C@H](CO)NC(=O)[C@@H](NC(=O)[C@H](CC(=O)O)NC(=O)[C@H](CO)NC(=O)[C@@H](NC(=O)[C@H](Cc1ccccc1)NC(=O)[C@@H](NC(=O)CNC(=O)[C@H](CCC(=O)O)NC(=O)[C@H](C)NC(=O)[C@@H](N)Cc1c[nH]cn1)[C@@H](C)O)[C@@H](C)O)C(C)C)C(=O)N[C@H]1CCC[C@@H]1C(=O)N[C@@H](Cc1c[nH]c2ccccc12)C(=O)N[C@@H](CC(C)C)C(=O)N[C@H](C(=O)N[C@H]1CNC[C@@H]1C(=O)NCC(=O)N[C@@H](CCCNC(=N)N)C(=O)NCC(N)=O)C(C)C [α/β-Peptide 1] (H-HAEGTFTSDVSSYLEGQAA[X2]EFI[X1]WLV[X2]GRG-NH2) |  |  |  |
| 97 ± 2 | 59 ± 2 | 41 ± 4 |  |  |  | CC[C@H](C)[C@H](NC(=O)[C@H](Cc1ccccc1)NC(=O)[C@H](CCC(=O)O)NC(=O)[C@H]1CNC[C@@H]1NC(=O)[C@H](C)NC(=O)[C@H](C)NC(=O)[C@H](CCC(N)=O)NC(=O)[C@H]1CCC[C@@H]1NC(=O)[C@H](CCC(=O)O)NC(=O)[C@H](CC(C)C)NC(=O)[C@H](Cc1ccc(O)cc1)NC(=O)[C@H]1CCC[C@@H]1NC(=O)[C@H](CO)NC(=O)C(C)(C)NC(=O)[C@H](CC(=O)O)NC(=O)[C@H](CO)NC(=O)[C@@H](NC(=O)[C@H](Cc1ccccc1)NC(=O)[C@@H](NC(=O)CNC(=O)[C@H](CCC(=O)O)NC(=O)[C@H](C)NC(=O)[C@@H](N)Cc1c[nH]cn1)[C@@H](C)O)[C@@H](C)O)C(=O)N[C@@H](C)C(=O)N[C@@H](Cc1c[nH]c2ccccc12)C(=O)N[C@@H](CC(C)C)C(=O)N[C@H](C(=O)N[C@@H](CCCCN)C(=O)NCC(=O)N[C@@H](CCCNC(=N)N)C(=O)NCC(N)=O)C(C)C [α/β-Peptide 9] (H-HAEGTFTSD[Aib]S[X1]YLE[X1]QAA[X2]EFIAWLVKGRG-NH2) |  |  |  |
| 104 ± 1 | 74 ± 4 | 80 ± 3 |  |  |  | CC[C@H](C)[C@H](NC(=O)[C@H](Cc1ccccc1)NC(=O)[C@H](CCC(=O)O)NC(=O)[C@H]1CNC[C@@H]1NC(=O)[C@H](C)NC(=O)[C@H](C)NC(=O)[C@H](CCC(N)=O)NC(=O)CNC(=O)[C@H](CCC(=O)O)NC(=O)[C@H](CC(C)C)NC(=O)[C@H](Cc1ccc(O)cc1)NC(=O)[C@H]1CCC[C@@H]1NC(=O)[C@H](CO)NC(=O)[C@@H](NC(=O)[C@H](CC(=O)O)NC(=O)[C@H](CO)NC(=O)[C@@H](NC(=O)[C@H](Cc1ccccc1)NC(=O)[C@@H](NC(=O)CNC(=O)[C@H](CCC(=O)O)NC(=O)[C@H](C)NC(=O)[C@@H](N)Cc1c[nH]cn1)[C@@H](C)O)[C@@H](C)O)C(C)C)C(=O)N[C@@H](C)C(=O)N[C@@H](Cc1c[nH]c2ccccc12)C(=O)N[C@@H](CC(C)C)C(=O)N[C@H](C(=O)N[C@@H](CCCCN)C(=O)NCC(=O)N[C@@H](CCCNC(=N)N)C(=O)NCC(N)=O)C(C)C [α/β-Peptide 13] (H-HAEGTFTSDVS[X1]YLEGQAA[X2]EFIAWLVKGRG-NH2) |  |  |  |

— PMC5207657 (Journal of the American Chemical Society, 2016)
